Two compounds from patent US10392401B2, “Crystal form A of compound and preparation method thereof” (SHANGHAI INSTITUTE OF MATERIA MEDICA, CHINESE ACADEMY OF …, priority 2015, dated 2019) can be followed below.

Where two headings read alike, the source gives them in different places.

Series [1] has as its system gene-deficient db/db mice. Briefly: Chronic administration to gene-deficient db/db mice, fasting blood glucose. It counts as in vivo.
A further series relates to Rat. Briefly: Subacute toxicity test in Rat. It counts as in vivo. Particulars: oral, 150 mg/kg group.
The subject of another series is ICR mice. The series can be described thus: Acute toxicity test in ICR mice. It is filed as in vivo. To be noted: 300 mg/kg group.
Series [2] can be described thus: Pharmacokinetic study in rats. It counts as in vivo. Particulars: versus alogliptin.
In a further series the test system is normal ICR mice. Briefly: Oral glucose tolerance in normal ICR mice. It counts as in vivo.
In series [3] the target is DPP IV (Homo sapiens, UniProt P27487). Briefly: DPP IV inhibitory activity and selectivity in vitro. It is filed as biochemical.
Sequence of DPP IV (Homo sapiens, UniProt P27487) (P27487 whole entry, species assumed): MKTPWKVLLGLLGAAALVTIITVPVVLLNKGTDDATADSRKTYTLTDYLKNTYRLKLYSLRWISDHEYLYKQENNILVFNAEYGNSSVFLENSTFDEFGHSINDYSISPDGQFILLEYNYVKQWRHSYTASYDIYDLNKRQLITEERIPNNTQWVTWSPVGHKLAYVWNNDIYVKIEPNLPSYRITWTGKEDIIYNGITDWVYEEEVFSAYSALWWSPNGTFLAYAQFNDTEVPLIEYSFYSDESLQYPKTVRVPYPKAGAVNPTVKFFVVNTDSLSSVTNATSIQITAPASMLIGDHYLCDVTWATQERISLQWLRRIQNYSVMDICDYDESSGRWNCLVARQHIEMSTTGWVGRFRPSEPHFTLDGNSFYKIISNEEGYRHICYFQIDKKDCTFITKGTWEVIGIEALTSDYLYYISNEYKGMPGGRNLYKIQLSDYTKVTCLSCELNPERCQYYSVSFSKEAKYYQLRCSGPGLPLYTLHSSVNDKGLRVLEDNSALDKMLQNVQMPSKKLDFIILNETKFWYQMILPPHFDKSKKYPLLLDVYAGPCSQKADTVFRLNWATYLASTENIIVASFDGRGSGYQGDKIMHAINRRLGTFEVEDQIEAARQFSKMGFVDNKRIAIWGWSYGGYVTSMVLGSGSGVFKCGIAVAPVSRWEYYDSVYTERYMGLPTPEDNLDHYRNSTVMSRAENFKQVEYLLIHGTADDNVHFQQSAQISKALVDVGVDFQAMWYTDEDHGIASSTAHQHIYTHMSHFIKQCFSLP
The next series relates to ob/ob mice. The series can be described thus: Chronic administration to ob/ob mice, fasting blood glucose. It is filed as in vivo.
Series [4] concerns the target T1, DPP IV (Rattus norvegicus, UniProt P14740).
T1 construct: from tissue; host or cells: rat plasma
Briefly: Inhibition of DPP IV activity in rat plasma. It counts as in vivo.

Series [5] has as its target T2, DPP IV (Mus musculus, UniProt P28843).
T2 construct: from tissue; host or cells: mouse plasma
Briefly: Inhibition of DPP IV activity in normal mice plasma. It is filed as in vivo.

Series [6] in a line: Pharmacokinetic study in dogs. It is filed as in vivo. To be noted: versus alogliptin.
A short description of series [7]: Oral absorption and bioavailability compared with amorphous powder. It counts as in vivo. To be noted: versus amorphous powder.
Series [8] can be described thus: Stability of the crystal form. It counts as physicochemical.
Series [9] in a line: Solubility compared with amorphous powder. It counts as physicochemical. To be noted: versus amorphous powder.
Series [10] in a line: Oral hypoglycemic activity compared with amorphous powder. It is filed as in vivo. To be noted: orally administered; versus amorphous powder.
A short description of series [11]: Hygroscopicity analysis (DVS). It counts as physicochemical. How it is done:
Dynamic vapor absorption (DVS) test/water absorption test is conducted by rapidly measuring the increase and loss of the moisture in the sample caused by flow carrier gas with setted relative humidity (RH). The sample is placed on a digital microbalance with high sensitivity and high stability at a self-suspension state, and then by measuring the increase/decrease of the material mass so as to measure the adsorption/desorption of water vapor, thereby determining the hygroscopicity of the sample.
In the present invention, the test parameters for DVS are as follows: Instrument type: SMS DVS Intrinsic; Non-hydrate: 0 to 95%-0% RH; Temperature: 25° C.; Hydrate: 40 to 95%-0% RH; Temperature: 25° C.

The mark [12] stands for this setting: versus positive control alogliptin.

T2 sequence (P28843 37-760 limits assumed): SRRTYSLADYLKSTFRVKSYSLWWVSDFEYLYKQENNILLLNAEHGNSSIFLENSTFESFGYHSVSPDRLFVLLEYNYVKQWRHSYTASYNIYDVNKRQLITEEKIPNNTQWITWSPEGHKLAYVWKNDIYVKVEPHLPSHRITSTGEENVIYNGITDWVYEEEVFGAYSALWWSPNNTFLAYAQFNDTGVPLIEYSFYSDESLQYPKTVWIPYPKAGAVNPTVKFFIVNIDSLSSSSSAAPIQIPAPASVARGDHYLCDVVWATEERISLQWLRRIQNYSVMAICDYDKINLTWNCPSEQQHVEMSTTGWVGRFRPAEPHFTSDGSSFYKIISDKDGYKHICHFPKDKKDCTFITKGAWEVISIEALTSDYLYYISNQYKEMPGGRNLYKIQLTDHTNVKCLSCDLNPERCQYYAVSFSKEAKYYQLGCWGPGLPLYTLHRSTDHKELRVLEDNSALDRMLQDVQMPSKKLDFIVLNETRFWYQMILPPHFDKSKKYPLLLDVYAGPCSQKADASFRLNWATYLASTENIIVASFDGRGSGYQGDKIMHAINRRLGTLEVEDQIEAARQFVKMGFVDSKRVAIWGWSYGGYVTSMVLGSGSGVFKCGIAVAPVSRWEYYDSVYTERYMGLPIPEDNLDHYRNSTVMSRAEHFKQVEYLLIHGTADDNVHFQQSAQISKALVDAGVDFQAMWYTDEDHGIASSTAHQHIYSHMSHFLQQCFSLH
T1 sequence (P14740 37-767 limits assumed): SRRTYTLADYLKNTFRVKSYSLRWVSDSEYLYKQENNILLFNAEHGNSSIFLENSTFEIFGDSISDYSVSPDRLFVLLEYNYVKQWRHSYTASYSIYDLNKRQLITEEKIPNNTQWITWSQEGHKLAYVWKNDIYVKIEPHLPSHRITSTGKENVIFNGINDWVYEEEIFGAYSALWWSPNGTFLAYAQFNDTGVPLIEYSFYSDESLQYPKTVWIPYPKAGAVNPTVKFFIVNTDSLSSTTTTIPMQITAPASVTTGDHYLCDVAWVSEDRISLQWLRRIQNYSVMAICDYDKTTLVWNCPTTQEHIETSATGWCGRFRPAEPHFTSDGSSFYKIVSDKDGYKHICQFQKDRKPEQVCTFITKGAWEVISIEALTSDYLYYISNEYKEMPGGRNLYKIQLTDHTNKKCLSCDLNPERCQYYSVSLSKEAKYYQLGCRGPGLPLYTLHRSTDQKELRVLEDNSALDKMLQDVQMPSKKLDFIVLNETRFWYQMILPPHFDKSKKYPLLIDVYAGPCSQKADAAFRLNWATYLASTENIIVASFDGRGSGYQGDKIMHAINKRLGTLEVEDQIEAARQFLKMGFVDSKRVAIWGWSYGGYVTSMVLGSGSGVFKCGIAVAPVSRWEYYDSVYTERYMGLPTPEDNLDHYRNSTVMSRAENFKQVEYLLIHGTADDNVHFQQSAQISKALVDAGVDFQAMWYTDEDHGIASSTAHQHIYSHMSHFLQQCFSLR

In the case of `COC(=O)c1cc2nc(N3CCC[C@@H](N)C3)n(Cc3ccccc3C#N)c(=O)c2s1` [Formula I, (R)-methyl-2-(3-aminopiperidin-1-yl)-3-(2-cyanobenzyl)-4-carbonyl-3,4-dihydroth iophene[3,2-d] pyrimidine-6-carboxylic acid], the fasting blood glucose result in series [1] is on record as “can reduce”; in the series with ob/ob mice it was “effectively reduce”. The “fasting blood glucose reduction compared with alogliptin” value is given as “comparable” in series [1] (setting [12]) and “superior” with ob/ob mice (setting [12]). For the same compound, in the series on Rat, the “toxicity in subacute toxicity test” value was “no obvious toxicity”. Further, the “death in acute toxicity test” value in the series with ICR mice is on record as “no death”. In addition, the “AUC0-t compared with alogliptin” value in series [2] and in series [6] was “superior” each time. Further, the “half-life compared with alogliptin” value in series [2] and in [6] was “superior” in each case. In addition, the “effective dose for increasing oral glucose tolerance” value in the series on normal ICR mice (dose-dependent) stood at 0.1 mg/kg. For the same compound, the “effect on oral glucose tolerance compared with alogliptin” value in the series with normal ICR mice (versus alogliptin) is reported as “superior”. On DPP IV [3], the “type of DPP IV inhibition” value was “selective and reversible competitive”. The inhibitory activity result against DPP IV [3] (in vitro) is “nanomolar level”. For the same compound, the “inhibitory activity and selectivity in vitro compared with sitagliptin and vildagliptin” value at DPP IV [3] (in vitro, versus listed drugs sitagliptin and vildagliptin) is recorded as “superior”. In addition, the “DPP IV activity in plasma” value at DPP IV [4] and on DPP IV [5] was “effectively inhibit” throughout. For the same compound, the “DPP IV inhibitory activity compared with alogliptin” value at DPP IV [4] (versus alogliptin) and on DPP IV [5] (versus alogliptin) was “superior” throughout.

As to `COC(=O)c1cc2nc(N3CCC[C@@H](N)C3)n(Cc3ccccc3C#N)c(=O)c2s1` [crystal form A, (R)-methyl-2-(3-aminopiperidin-1-yl)-3-(2-cyanobenzyl)-4-carbonyl-3,4-dihydrothiop hene[3,2-d] pyrimidine-6-carboxylic acid], the “oral absorption ability compared with amorphous powder” value in series [7] is on record as “enhance oral absorption ability”. The “stability, in particular thermal stability” value in [8] (compared with the prior art) is reported as “better stability”. For the same compound, the degradability entry in [8] (conventional conditions) is listed as “not easily degradable”. In addition, the “solubility compared with amorphous powder” value in series [9] is on record as “improve solubility”. Moreover, in series [10], the “hypoglycemic activity compared with amorphous powder” value is “better”. Also, the values for the hygroscopicity result in [11] and in [11] (relative humidity RH less than 50%) were “less than 1%” and “less than 0.3%”, respectively. In series [11] (40% RH), this compound displayed a moisture content of 0.26%. Also, the moisture absorbed in series [11] (65% RH) is 0.42%; in series [11] (80% RH), 0.57%. In addition, the “hygroscopicity (DVS)” value in [11] (FIG. 5, crystal of Example 1) is recorded as “slight hygroscopicity”. Further, in [11] (range of conventional storage humidity), the “variation range of humidity” value was “smaller than 2.0%”.
